Laboratory results reported in patent US20100028407A1, “LAYERED BIO-ADHESIVE COMPOSITIONS AND USES THEREOF” (UNIVERSITY OF LOUISVILLE RESEARCH FOUNDATION, INC., priority 2006, published 2010).

What was measured:
[1] = Closure of 3 mm corneal wounds by impregnated gelatin sheets, Seidel test under rising intraocular pressure; design: species or system porcine; conditions: about 100-μm gelatin sheet (50% gelatin, 300 mM sucrose) impregnated with rose bengal 1.5 mM (light pipe 3 min), glyceraldehyde 0.2 M (no illumination) or riboflavin 0.1% (UV 370 nm); average±standard deviation
Description: Gelatin blocks were prepared by the following method: Gelatin (300 Blooms, Sigma, St. Louis, Mo.) was dissolved in Minimal Essential Medium (MEM, Gibco, Grand Island, N.Y.), 300 mM sucrose was added and the solution was sterilized with gamma irradiation (2.7 Megarads). Addition of 300 mM sucrose maintained the gelatin sheets in a solid phase at temperatures below 37° C. and allowed the gelatin sheet to melt within minutes at body temperature once the gelatin sheet were placed over the wound. Gelatin blocks were prepared at a concentration of about 50% (weight/volume of MEM), which were firm enough to manipulate during the surgery by the surgeon. These gelatin blocks have rigidity of 300 blooms. Once the gelatin/sucrose solution in MEM was sterilized, the solution was poured into 35-mm tissue culture dish (Falcon #3001, Becton Dickinson, Lincoln Park, N.J.) and allowed to cool for 15 minutes to solidify at room temperature. […]
Rose bengal was activated with an endoilluminator light pipe for 3 minutes. […] After each elevation, the treated wound was checked for the presence of any possible wound leak with the Seidel test, and the highest intraocular pressure at which the wound remained intact was recorded. This experiment was repeated three times on three different occasions and the results were calculated as average±standard deviation. […]

[2] = test system: photo receptor cells (PRC), choriocapillaris (CC) and RPE cells; experiment: Live-Dead cell viability immediately after photo-melding conditions; type: cell-based; conditions: control PBS
Description: Cellular viability of photo receptor cells (PRC), choriocapillaris (CC) and RPE cells were determined with the Live-Dead assay (Molecular Probes, Portland, Oreg.) to determine the safety of the photo-melding procedure. Human cadaver eyes were obtained from an eye bank. Anterior segments were removed and sensory retina and RPE-CC complex were dissected out. Tissue samples of 6-mm size were cut from each layer and placed in 1.5 mM and 10 mM rose bengal solution. Using similar parameters photo-melding conditions were mimicked. Viability was assessed immediately after exposure. Samples exposed to similar lighting conditions in PBS were taken as control.

PRC, CC and RPE cells = experiment: Live-Dead cell viability after photo-melding of Bruch's membrane patch graft in eyecup followed by ambient light; type: cell-based, human; conditions: 1.5 mM rose bengal; 6 hours ambient light at room temperature
Description: In order to assess the additive effect of subsequent ambient light on cell toxicity anterior segments of three eyecups were removed and a 20-D PMMA PC IOL was sutured into the ciliary sulcus. Sensory retina was carefully lifted off and foveal RPE cells were removed mechanically. Exposed Bruch's membrane was intentionally damaged and a 6-mm Bruch's membrane patch graft photo-melded by photo-exciting 1.5 mM of rose bengal through sensory retina. After the photo-melding procedure, the eyecup was maintained at room temperature for 6 hours exposed to ambient light. At the end of this period cellular viability was assessed with Live-Dead assay. Again, PBS treated eyes served as control.

[3] = Attachment strength of photo-melded inner collagenous layer explants in a buoyancy chamber; design: species or system human; conditions: for Attachment strength: 35 mW light at 40 mm
Description: Bruch's membrane explants were harvested from cadaver eyes. RPE-Bruch's membrane-Choroid complexes were dissected out under a microscope; washed with PBS three times and kept in 0.02N ammonium hydroxide for 30 minutes to lyse all cellular components. Three cycles of PBS washing followed by removal of the basal lamina mechanically as described before. Briefly, a full thickness circumferential incision was made posterior to the ora serrata and the anterior segment and vitreous were removed carefully. The posterior pole of each eye cup was inspected visually with direct and retroillumination under a dissecting microscope and globes were discarded if there was any evidence of subretinal blood, previous surgery or any extensive structural or vascular alteration of the posterior segment due to a disease process, such as proliferative diabetic retinopathy or proliferative vitreoretinopathy. The eyecups were put in carbon dioxide-free Media (Gibco) and a scleral incision was made 3 mm from the limbus and extended circumferentially. Four radial incisions were then made and the sclera was peeled away. […] The choroid-Bruch's membrane-RPE complex was then carefully peeled towards the optic disc and removed after trimming its attachment to the optic nerve. Native RPE were removed by bathing the explant with 0.02 N ammonium hydroxide in a 50-mm polystyrene Petri dish (Falcon, Becton Dickinson, Lincoln Park, N.J.) for 20 minutes at room temperature followed by washing three times in phosphate-buffered saline (PBS). The Bruch's membrane explant from the fellow eye was prepared by removing the RPE with 0.02N ammonium hydroxide as described above. The Bruch's membrane explant was then floated in CFM over a 12-18 micron thick hydrophilic polycarbonate-polyvinylpyrrolidone membrane with 0.4 micron pores (Millipore, Bedford, Mass.) with the basal lamina facing towards the membrane. The curled edges were flattened from the choroidal side with fine forceps without touching Bruch's membrane. Four percent agarose (Sigma Chemical Co., St. Louis, Mo.) was poured on the Bruch's membrane-choroid complex from the choroidal side and the tissue was kept at 4° C. for 2-3 minutes to solidify the agarose. The hydrophilic membrane was peeled off along with the basal lamina of the RPE thus exposing the bare inner collagenous layer. 6 mm circular buttons were then trephined from peripheral Bruch's membrane on a Teflon sheet and placed on 4% agarose at 37° C. in non-treated polystyrene wells of a 96 well plate (Corning Costar Corp., Cambridge, Mass.). The agarose solidified within 2-3 minutes at room temperature, thus stabilizing the Bruch's membrane explant. The wells were gently rinsed with PBS three times for 5 minutes, gamma sterilized (20,000 rads) and then stored at 4° C. Explants with exposed ICL were then cut with a 6-mm trephine and stored in sterile PBS after gamma sterilization at 20,000 rads. At the time of use ICL surface was painted with rose bengal (at concentrations as provided in FIG. 2) and two patches were faced to each other at their ICL surface. Extra fluid was removed with a Whatman #30 filter paper and the two surfaces were apposed. […] Exposure time was limited to three minutes not to exceed photo-toxicity thresholds. […] Exposed inner collagenous layers were painted with rose bengal and photo-[…] to each other by photo-exciting rose bengal with a white light source. The light intensity matched the vitrectomy endo illuminator and exposure was limited to 3 minutes to avoid retinal photo-toxicity. […] Attached grafts were kept under 0.21 mN (milliNewtons) of constant traction for 3 days to test the stability of the […] process.

[4] = TEM and SEM ultrastructure of photo-melded Bruch's membrane explants; conditions: 0.1 to 20 mM tested
Description: Bruch's membrane explants were photo-melded with varying concentrations of rose bengal, ranging from 0.1 to 20 mM. Transmission electron microscopy (TEM) and scanning electron microscopy (SEM). […] At this concentration, cross linked collagen fibers twisted onto themselves and formed macro bundles. At concentrations higher that 1.5 mM, attenuation of individual collagen fibers and frequent breaks lead to the disruption of collagen framework resulting in hollow spaces at 10 and 20 mM concentrations. Starting from 0.1 mM concentration, the number of electron-dense collagen fibers increased as the concentration of rose bengal increased, possibly due to increased oxidation and subsequent better attraction of positively charged lead and osmium on the collagen fiber. At concentrations higher than 10 mM electron dense haze started to accumulate around the collagen debris.

| Compound | Highest intraocular pressure at which the wound remained intact [1] [mmHg] | PRC, CC and RPE cell viability immediately after photo-melding procedure ([2]; 1.5 mM rose bengal) | PRC, CC and RPE cell viability immediately after photo-melding procedure ([2]; 10 mM rose bengal) | PRC, CC and RPE cell viability after photo-melding and ambient light exposure (PRC, CC and RPE cells) | Attachment strength ([3]; 1.5 mM rose bengal, 3 min) [N/m^2] | Attachment strength ([3]; 5 mM rose bengal, 3 min) [N/m^2] | Attachment strength ([3]; 10 mM rose bengal, 3 min) [N/m^2] | Attachment strength ([3]; 20 mM rose bengal, 3 min) [N/m^2] | Minimum concentration to attain strong photo-melding of human inner collagenous layer grafts ([3]; 3 min, 35 mW light) [mM] | Concentration resulting in photo-melding of exposed human inner collagenous layers ([3]; 3 min exposure to 35 mW of light at 40 millimeters) | Stability of photo-melded grafts under continuous traction ([3]; 72 hours of observation at 37° C., 0.21 mN constant traction) | Concentration at which collagen crosslinking reached its maximum [4] [mM] |
| --- | --- | --- | --- | --- | --- | --- | --- | --- | --- | --- | --- | --- |
| O=CC(O)CO (stereo not shown) [glyceraldehyde] | 66.1±6.0 | – | – | – | – | – | – | – | – | – | – | – |
| O=C([O-])c1c(Cl)c(Cl)c(Cl)c(Cl)c1-c1c2cc(I)c(=O)c(I)c-2oc2c(I)c([O-])c(I)cc12.[Na+].[Na+] [rose bengal, tetratodotetrachioro fluorescein disodium salt] | 75.6±5.8 | no adverse side effect | no adverse side effect | did not effect the viability | 14.1 | 14.1 | 5.7 | 2.83 | 1.5 | above 0.1 mM | remained attached | 1.5 |
